Measurements reported in patent publication US11485742B2, “2-azaspiro[3.4]octane derivatives as M4 agonists” (NOVARTIS AG, priority 2019, dated 2022).

What was measured:
Type in all cases: cell-based
[1] = target: T1, Cloned human M1 receptor (CHRM1) (Homo sapiens, UniProt P11229); assay: CHRM1 Ca++ Flux Assay (HEK293 M1 cells, agonist mode); conditions: for M1 FDSS PA % / Emax: Percent Activity (PA); for EC50: geometric mean if tested more than once, read-out: M1 FDSS EC50; for Emax: read-out: M1 FDSS PA %
T1 construct: expressed in transfected cells; host or cells: HEK293
T1 sequence (P11229 1-460): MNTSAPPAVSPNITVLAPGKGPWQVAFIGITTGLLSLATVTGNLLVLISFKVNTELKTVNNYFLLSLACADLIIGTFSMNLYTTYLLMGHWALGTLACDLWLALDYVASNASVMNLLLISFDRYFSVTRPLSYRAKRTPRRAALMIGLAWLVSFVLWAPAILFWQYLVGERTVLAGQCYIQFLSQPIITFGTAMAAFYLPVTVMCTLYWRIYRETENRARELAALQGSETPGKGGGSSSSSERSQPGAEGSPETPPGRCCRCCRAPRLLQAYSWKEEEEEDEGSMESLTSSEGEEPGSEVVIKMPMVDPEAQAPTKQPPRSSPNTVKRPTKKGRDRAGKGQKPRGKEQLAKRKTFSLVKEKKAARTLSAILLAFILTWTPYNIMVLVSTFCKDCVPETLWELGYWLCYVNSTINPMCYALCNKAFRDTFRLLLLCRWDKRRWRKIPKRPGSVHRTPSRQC
Outline: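 HEK293 cells stably expressing human M1 were loaded with Ca++ dye, then given compounds (11-point dose, triplicate) in HBSS −Ca/−Mg, 20 mM HEPES. Ca++ flux was read over 3 min (agonist mode). Four-parameter curves were fitted, with activity as percent of carbachol EC100.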

[2] = target: T2, human cloned CHRM3 receptor (Homo sapiens, UniProt P20309); assay: CHRM3 Ca++ Flux Assay (M3_CHO cells, agonist mode); conditions: for M3 FDSS PA % / Emax: Percent Activity (PA) measured to EC100 of Carbachol; for EC50: agonist mode, geometric mean if tested more than once, read-out: M3 FDSS EC50; for Emax: read-out: M3 FDSS PA %
T2 construct: expressed in transfected cells; host or cells: CHO-K1 (M3_CHO)
Outline: (§1)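 CHO-K1 cells stably expressing human M3 or M5 receptor, dye-loaded ≥1 h, treated with 11-point compound doses in triplicate; Ca++ flux read over 3 min (FDSS). Agonist-mode four-parameter fit; percent activity relative to carbachol EC100; repeat tests reported as geometric mean.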

[3] = target: T3, human cloned CHRM5 receptor (Homo sapiens, UniProt P08912); assay: CHRM5 Ca++ Flux Assay (M5_CHO cells, agonist mode); conditions: for M5 FDSS PA % / Emax: Percent Activity (PA) measured to EC100 of Carbachol; for EC50: agonist mode, geometric mean if tested more than once, read-out: M5 FDSS EC50; for Emax: read-out: M5 FDSS PA %
T3 construct: expressed in transfected cells; host or cells: CHO (M5_CHO)
T3 sequence (P08912 1-532): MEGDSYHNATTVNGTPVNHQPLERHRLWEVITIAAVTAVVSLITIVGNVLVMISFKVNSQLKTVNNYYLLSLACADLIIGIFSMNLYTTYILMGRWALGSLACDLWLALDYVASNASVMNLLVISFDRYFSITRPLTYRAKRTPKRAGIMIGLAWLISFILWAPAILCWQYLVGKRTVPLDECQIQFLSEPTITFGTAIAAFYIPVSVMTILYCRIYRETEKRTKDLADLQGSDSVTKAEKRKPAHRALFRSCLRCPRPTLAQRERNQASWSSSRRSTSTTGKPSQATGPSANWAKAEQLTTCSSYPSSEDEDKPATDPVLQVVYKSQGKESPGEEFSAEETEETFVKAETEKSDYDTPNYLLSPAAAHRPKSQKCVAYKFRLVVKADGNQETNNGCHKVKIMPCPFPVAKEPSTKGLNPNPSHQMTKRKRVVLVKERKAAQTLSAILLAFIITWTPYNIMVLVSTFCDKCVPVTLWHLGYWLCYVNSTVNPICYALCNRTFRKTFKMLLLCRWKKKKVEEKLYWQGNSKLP
Outline: as §1

T2 sequence (P20309 whole entry): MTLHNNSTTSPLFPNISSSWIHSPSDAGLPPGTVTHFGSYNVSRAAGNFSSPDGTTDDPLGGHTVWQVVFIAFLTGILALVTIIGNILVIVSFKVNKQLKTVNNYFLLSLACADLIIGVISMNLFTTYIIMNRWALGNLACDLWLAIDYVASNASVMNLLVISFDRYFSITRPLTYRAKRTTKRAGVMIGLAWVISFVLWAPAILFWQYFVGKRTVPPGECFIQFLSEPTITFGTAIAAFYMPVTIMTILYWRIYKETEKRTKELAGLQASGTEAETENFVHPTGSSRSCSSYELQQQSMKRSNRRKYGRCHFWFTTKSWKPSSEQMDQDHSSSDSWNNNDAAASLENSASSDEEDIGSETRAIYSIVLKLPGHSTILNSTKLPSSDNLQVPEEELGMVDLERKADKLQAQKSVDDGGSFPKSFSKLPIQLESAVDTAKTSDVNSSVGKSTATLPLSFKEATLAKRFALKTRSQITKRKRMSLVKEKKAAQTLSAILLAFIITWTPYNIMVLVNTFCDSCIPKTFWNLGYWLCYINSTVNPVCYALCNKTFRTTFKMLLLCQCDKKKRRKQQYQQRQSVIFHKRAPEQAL

| Structure (SMILES) | M1 FDSS PA % [1] | EC50 [1] | M3 FDSS PA % [2] | EC50 [2] | M5 FDSS PA % [3] | EC50 [3] | Emax [1] | Emax [2] | Emax [3] |
| --- | --- | --- | --- | --- | --- | --- | --- | --- | --- |
| CC(C)(O)[C@H]1C[C@@H](Oc2ccc(F)cc2C2CCN([C@@H]3COC4(C3)CN(c3ncco3)C4)CC2)C1 (single isomer, unassigned) [Example 4T, 2-((1R,3s)-3-(4-fluoro-2-(1-((S)-2-(oxazol-2-yl)-5-oxa-2-azaspiro[3.4]octan-7-yl)piperidin-4-yl)phenoxy)cyclobutyl)propan-2-ol or 2-((1S,3r)-3-(4-fluoro-2-(1-((S)-2-(oxazol-2-yl)-5-oxa-2-azaspiro[3.4]octan-7-yl)piperidin-4-yl)phenoxy)cyclobutyl)propan-2-ol] | 63% | 0.909 µM | 0% | > 25 µM | 0% | > 25 µM | – | – | – |
| CC(C)(O)[C@H]1C[C@@H](Oc2ccc(F)cc2C2CCN([C@@H]3COC4(C3)CN(c3ncco3)C4)CC2)C1 (single isomer, unassigned) [Example 4U, 2-((1R,3s)-3-(4-fluoro-2-(1-((S)-2-(oxazol-2-yl)-5-oxa-2-azaspiro[3.4]octan-7-yl)piperidin-4-yl)phenoxy)cyclobutyl)propan-2-ol or 2-((1S,3r)-3-(4-fluoro-2-(1-((S)-2-(oxazol-2-yl)-5-oxa-2-azaspiro[3.4]octan-7-yl)piperidin-4-yl)phenoxy)cyclobutyl)propan-2-ol] | 55% | 2.24 µM | 0% | > 25 µM | 0% | > 25 µM | – | – | – |
| Fc1ccc(OC[C@@H]2CCOC2)c(C2CCN([C@@H]3COC4(C3)CN(c3nnco3)C4)CC2)c1 [Example 1B, (S)-7-(4-(5-fluoro-2-(((R)-tetrahydrofuran-3-yl)methoxy)phenyl)piperidin-1-yl)-2-(1,3,4-oxadiazol-2-yl)-5-oxa-2-azaspiro[3.4]octane] | – | 0.598 µM | – | > 25 µM | – | > 25 µM | 72% | 0% | 0% |
| Fc1ccc(OC[C@H]2COCCO2)c(C2CCN([C@@H]3COC4(C3)CN(c3nnco3)C4)CC2)c1 [Example 1C] | – | 0.576 µM | – | > 25 µM | – | > 25 µM | 72% | 0% | 0% |
| Fc1ccc(O[C@@H]2CCOC2)c(C2CCN([C@@H]3COC4(C3)CN(c3nnco3)C4)CC2)c1 [Example 1D, (S)-7-(4-(5-fluoro-2-(((R)-tetrahydrofuran-3-yl)oxy)phenyl)piperidin-1-yl)-2-(1,3,4-oxadiazol-2-yl)-5-oxa-2-azaspiro[3.4]octane] | – | 0.609 µM | – | > 25 µM | – | > 25 µM | 69% | 0% | 0% |
| CC(C)(C#N)COc1ccc(F)cc1C1CCN([C@@H]2COC3(C2)CN(c2nnco2)C3)CC1 [Example 1E, (S)-3-(2-(1-(2-(1,3,4-oxadiazol-2-yl)-5-oxa-2-azaspiro[3.4]octan-7-yl)piperidin-4-yl)-4-fluorophenoxy)-2,2-dimethylpropanenitrile] | – | 0.563 µM | – | > 25 µM | – | > 25 µM | 84% | 0% | 0% |
| Fc1ccc(OC[C@@H]2COCCO2)c(C2CCN([C@@H]3COC4(C3)CN(c3nnco3)C4)CC2)c1 [Example 1F, (S)-7-(4-(2-(((S)-1,4-dioxan-2-yl)methoxy)-5-fluorophenyl)piperidin-1-yl)-2-(1,3,4-oxadiazol-2-yl)-5-oxa-2-azaspiro[3.4]octane] | – | 0.368 µM | – | > 25 µM | – | > 25 µM | 83% | 0% | 0% |
| Fc1ccc(OC2CCOCC2)c(C2CCN([C@@H]3COC4(C3)CN(c3nnco3)C4)CC2)c1 [Example 1G, (S)-7-(4-(5-fluoro-2-((tetrahydro-2H-pyran-4-yl)oxy)phenyl)piperidin-1-yl)-2-(1,3,4-oxadiazol-2-yl)-5-oxa-2-azaspiro[3.4]octane] | – | 0.973 µM | – | > 25 µM | – | > 25 µM | 77% | 0% | 0% |
| Fc1ccc(O[C@H]2CCOC2)c(C2CCN([C@@H]3COC4(C3)CN(c3nnco3)C4)CC2)c1 [Example 1H, (S)-7-(4-(5-fluoro-2-(((S)-tetrahydrofuran-3-yl)oxy)phenyl)piperidin-1-yl)-2-(1,3,4-oxadiazol-2-yl)-5-oxa-2-azaspiro[3.4]octane] | – | 0.631 µM | – | > 25 µM | – | > 25 µM | 87% | 0% | 0% |
| Fc1cc(F)c(OC2CC3(COC3)C2)c(C2CCN([C@@H]3COC4(C3)CN(c3nnco3)C4)CC2)c1 [Example 2AA, (S)-7-(4-(2-((2-oxaspiro[3.3]heptan-6-yl)oxy)-3,5-difluorophenyl)piperidin-1-yl)-2-(1,3,4-oxadiazol-2-yl)-5-oxa-2-azaspiro[3.4]octane] | – | 6.66 µM | – | > 25 µM | – | > 25 µM | 30% | 0% | 0% |
| Fc1cc(F)c(OC2CCOCC2)c(C2CCN([C@@H]3COC4(C3)CN(c3nnco3)C4)CC2)c1 [Example 2BB, (S)-7-(4-(3,5-difluoro-2-((tetrahydro-2H-pyran-4-yl)oxy)phenyl)piperidin-1-yl)-2-(1,3,4-oxadiazol-2-yl)-5-oxa-2-azaspiro[3.4]octane] | – | 7 µM | – | > 25 µM | – | > 25 µM | 65% | 0% | 0% |
| Fc1cc(F)c(O[C@@H]2CCOC2)c(C2CCN([C@@H]3COC4(C3)CN(c3nnco3)C4)CC2)c1 [Example 2CC, (S)-7-(4-(3,5-difluoro-2-(((R)-tetrahydrofuran-3-yl)oxy)phenyl)piperidin-1-yl)-2-(1,3,4-oxadiazol-2-yl)-5-oxa-2-azaspiro[3.4]octane] | – | 2.18 µM | – | > 25 µM | – | > 25 µM | 85% | 0% | 0% |
| Fc1cc(F)c(OCC2COC2)c(C2CCN([C@@H]3COC4(C3)CN(c3nnco3)C4)CC2)c1 [Example 2DD, (S)-7-(4-(3,5-difluoro-2-(oxetan-3-ylmethoxy)phenyl)piperidin-1-yl)-2-(1,3,4-oxadiazol-2-yl)-5-oxa-2-azaspiro[3.4]octane] | – | 1.12 µM | – | > 25 µM | – | > 25 µM | 67% | 0% | 0% |
| Fc1cc(F)c(OC2COC2)c(C2CCN([C@@H]3COC4(C3)CN(c3nnco3)C4)CC2)c1 [Example 2EE, (S)-7-(4-(3,5-difluoro-2-(oxetan-3-yloxy)phenyl)piperidin-1-yl)-2-(1,3,4-oxadiazol-2-yl)-5-oxa-2-azaspiro[3.4]octane] | – | 2.34 µM | – | > 25 µM | – | > 25 µM | 95% | 0% | 0% |
| Fc1cc(OC2COC2)c(C2CCN([C@@H]3COC4(C3)CN(c3nnco3)C4)CC2)cc1F [Example 2FF, (S)-7-(4-(4,5-difluoro-2-(oxetan-3-yloxy)phenyl)piperidin-1-yl)-2-(1,3,4-oxadiazol-2-yl)-5-oxa-2-azaspiro[3.4]octane] | – | 0.264 µM | – | > 25 µM | – | > 25 µM | 70% | 0% | 0% |
| Fc1cc(OC2CCOCC2)c(C2CCN([C@@H]3COC4(C3)CN(c3nnco3)C4)CC2)cc1F [Example 2GG, (S)-7-(4-(4,5-difluoro-2-((tetrahydro-2H-pyran-4-yl)oxy)phenyl)piperidin-1-yl)-2-(1,3,4-oxadiazol-2-yl)-5-oxa-2-azaspiro[3.4]octane] | – | 2.9 µM | – | > 25 µM | – | > 25 µM | 64% | 0% | 0% |
